Calls of active or inactive are those of the source. The calls are words filed in the database; no cut-off is given here.
Columns and labels:
[1] = Drug accumulation in zebrafish embryo stomach at 10 ppm incubated for 80 mins; format: ADME, tissue-based, Danio rerio; conditions: in vivo
[2] = Drug accumulation in zebrafish embryo intestinal villi at 10 ppm incubated for 80 mins; format: ADME, Danio rerio; conditions: in vivo
[3] = Drug accumulation in zebrafish embryo skin at 10 ppm incubated for 80 mins; format: ADME, Danio rerio, Zone of skin; conditions: in vivo
[4] = Drug accumulation in zebrafish embryo muscle at 10 ppm incubated for 80 mins; format: ADME, Danio rerio, Muscle tissue; conditions: in vivo
Danio rerio [5] = species: Danio rerio; experiment: Cytotoxicity in zebrafish embryo assessed as survival rate at 10 ppm after 80 mins relative to control; format: functional
Danio rerio [6] = species: Danio rerio; experiment: Cytotoxicity in zebrafish embryo assessed as survival rate at 25 ppm after 80 mins relative to control; format: functional
Danio rerio [7] = species: Danio rerio; experiment: Cytotoxicity in zebrafish embryo assessed as survival rate at 50 ppm after 80 mins relative to control; format: functional
Escherichia coli = experiment: Antibacterial activity against Escherichia coli assessed as inhibition of microbial growth; format: functional, organism-based

| Structure (SMILES) | Drug uptake [1] | Drug uptake [2] | Drug uptake [3] | Drug uptake [4] | Survival (Danio rerio [5]) [%] | Survival (Danio rerio [6]) [%] | Survival (Danio rerio [7]) [%] | growth inhibition (GI) (Escherichia coli) |
| --- | --- | --- | --- | --- | --- | --- | --- | --- |
| CCN(CC)c1ccc2c(-c3ccccc3C(=O)NCCNC(=O)[C@@H]3[C@H](C(=O)OC)[C@H]4CC[C@@H]3O4)c3ccc(=[N+](CC)CC)cc-3oc2c1 | Active | Active | Not Active | Not Active |  |  |  |  |
| O=C1OC(=O)C2C3CCC(O3)C12 (stereo unspecified) [DEMETHYL-CANTHARIDIN] |  |  |  |  | 99.2 | 96.7 | 90.8 | inactive |
| COC(=O)[C@H]1[C@@H](C(=O)Oc2ccc(/C=C/c3cc(O)cc(O)c3)cc2)[C@@H]2CC[C@H]1O2 |  |  |  |  | 99.2 | 99.2 | 95.8 |  |

Source: ChEMBL document CHEMBL3758072, “Amphiphilic nanoparticles of resveratrol-norcantharidin to enhance the toxicity in zebrafish embryo” (Bioorg Med Chem Lett, 2016)
